Where two headings read alike, the source gives them in different places.
Experiments:
Calu-6 lung tumor line = assay: cells; format: cell-based, human; conditions: MTS assay, 72 hours, read-out: IC50 growth inhibition in Calu-6 cells
MAO-A = biological target: T1, MAO-A (Homo sapiens, UniProt P21397); assay: Inhibition of monoamine oxidase A in vitro; format: biochemical; conditions: read-out: IC50 for inhibition against MAO-A
T1 sequence (P21397 1-527): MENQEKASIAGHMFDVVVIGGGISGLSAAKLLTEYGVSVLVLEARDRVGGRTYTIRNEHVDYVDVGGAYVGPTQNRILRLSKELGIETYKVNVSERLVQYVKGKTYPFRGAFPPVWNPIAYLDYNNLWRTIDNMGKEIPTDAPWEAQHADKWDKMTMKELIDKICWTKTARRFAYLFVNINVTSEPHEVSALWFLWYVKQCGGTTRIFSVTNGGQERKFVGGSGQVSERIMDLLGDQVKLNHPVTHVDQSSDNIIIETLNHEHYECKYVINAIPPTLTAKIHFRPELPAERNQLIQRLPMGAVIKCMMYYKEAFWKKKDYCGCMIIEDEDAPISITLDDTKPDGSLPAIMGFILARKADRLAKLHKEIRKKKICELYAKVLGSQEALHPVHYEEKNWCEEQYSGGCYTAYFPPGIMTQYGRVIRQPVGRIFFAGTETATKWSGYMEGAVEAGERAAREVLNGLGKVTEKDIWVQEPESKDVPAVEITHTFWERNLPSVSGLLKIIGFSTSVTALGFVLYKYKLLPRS
Text: (§1) Each data point is the average of three determinations±standard error.

MAO-B = biological target: T2, MAO-B (Homo sapiens, UniProt P27338); assay: Inhibition of monoamine oxidase B in vitro; format: biochemical; conditions: read-out: IC50 for inhibition against MAO-B
T2 sequence (P27338 1-520): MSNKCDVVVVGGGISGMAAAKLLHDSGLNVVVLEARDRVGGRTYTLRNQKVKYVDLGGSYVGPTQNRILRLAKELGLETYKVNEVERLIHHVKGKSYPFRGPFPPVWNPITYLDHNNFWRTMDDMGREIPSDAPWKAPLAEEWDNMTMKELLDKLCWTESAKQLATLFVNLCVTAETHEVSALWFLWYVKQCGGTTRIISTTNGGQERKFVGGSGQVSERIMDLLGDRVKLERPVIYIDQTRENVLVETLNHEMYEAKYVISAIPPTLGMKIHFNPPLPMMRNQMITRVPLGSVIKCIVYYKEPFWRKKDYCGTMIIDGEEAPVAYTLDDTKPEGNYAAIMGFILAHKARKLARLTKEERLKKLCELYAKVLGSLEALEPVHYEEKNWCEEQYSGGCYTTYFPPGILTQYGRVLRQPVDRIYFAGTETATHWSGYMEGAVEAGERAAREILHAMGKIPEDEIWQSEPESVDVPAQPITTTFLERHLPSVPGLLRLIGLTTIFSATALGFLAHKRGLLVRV
Text: as §1

MCF-7 breast tumor line = format: cell-based; conditions: MTS assay, 72 hours; read-out: IC50 growth inhibition in MCF-7 cells

| IC50 (Calu-6 lung tumor line; Homo sapiens, Calu-6) [µM] | SMILES | IC50 (MAO-A) [µM] | IC50 (MAO-B) [µM] | IC50 (MCF-7 breast tumor line) [µM] | IC50 (Calu-6 lung tumor line) [µM] |
| --- | --- | --- | --- | --- | --- |
| 10.9 | N=C(NCCCNCCCCCCCNCCCNC(=N)NC(=N)NCCC(c1ccccc1)c1ccccc1)NC(=N)NCCC(c1ccccc1)c1ccccc1 [compound 3, verlindamycin, reference compound] |  |  |  |  |
|  | CSCC[C@H](NC(=O)[C@@H](NC(=O)[C@H](CCCNC(=N)N)NC(=O)[C@H](C)N)[C@@H](C)O)C(=O)N[C@H]1CCCCNC(=O)CC[C@@H](C(=O)N[C@H](C(=O)NCC(=O)NCC(=O)N[C@@H](CCCCN)C(=O)N[C@@H](C)C(=O)N2CCC[C@H]2C(=O)N[C@@H](CCCNC(=N)N)C(=O)N[C@@H](CCCCN)C(=O)N[C@@H](CCC(N)=O)C(=O)N[C@@H](CC(C)C)C(=O)N[C@@H](C)C(N)=O)[C@@H](C)O)NC(=O)[C@H](CCCCN)NC(=O)[C@H](CCCNC(=N)N)NC(=O)[C@H](C)NC(=O)[C@H]([C@@H](C)O)NC1=O [compound 11] | > 100 | > 100 | 157 | 125 |
